What was measured:
HT-29 = assay: In vitro antiproliferative activity (MTT), HT-29; assay type: cell-based; settings: Homo sapiens, tumor cell proliferation, 72 h, mean ± SE
Procedure: (§1) Human T-cell leukemia (CCRF-CEM and Jurkat) and human B-cell leukemia (SEM) cells were grown in RPMI-1640 medium (Gibco, Milano, Italy). Breast adenocarcinoma (MCF7), human cervix carcinoma (HeLa), and human colon adenocarcinoma (HT-29) cells were grown in DMEM medium (Gibco, Milano, Italy), all supplemented with 115 units/mL penicillin G (Gibco, Milano, Italy), 115 μg/mL streptomycin (Invitrogen, Milano, Italy), and 10% fetal bovine serum (Invitrogen, Milano, Italy). Stock solutions (10 mM) of the different compounds were obtained by dissolving them in dimethyl sulfoxide (DMSO). Individual wells of a 96-well tissue culture microtiter plate were inoculated with 100 μL of complete medium containing 8 × 10^3 cells. The plates were incubated at 37 °C in a humidified 5% CO2 incubator for 18 h prior to the experiments. After medium removal, 100 μL of fresh medium containing the test compound at different concentrations was added to each well in triplicate and incubated at 37 °C for 72 h. The percentage of DMSO in the medium never exceeded 0.25%. This was also the maximum DMSO concentration in all cell-based assays described below. […] Different concentrations of the test compounds were added, and viability was determined 72 h later by the MTT test. For cytotoxicity evaluations in resting PBL cultures, non-adherent cells were resuspended (5 × 10^5 cells/mL) and treated for 72 h with the test compounds, as described above.

Jurkat [1] = assay: In vitro antiproliferative activity (MTT), Jurkat; assay type: cell-based; settings: Homo sapiens, tumor cell proliferation, 72 h, mean ± SE
Procedure: as §1

RS4;11 = assay: In vitro antiproliferative activity (MTT), RS4;11; assay type: cell-based; settings: Homo sapiens, tumor cell proliferation, 72 h, mean ± SE
[2] = test system: BL6-B16 mouse melanoma cell line; assay: Mouse allograft (syngeneic) tumor model; assay type: in vivo; settings: for reduction of tumor mass: doses on days 9, 11 and 14, C57BL/6 mice
Procedure: […] As reference compound, CA-4P (1b) was used at 30 mg/kg. The BL6-B16 mouse melanoma cell line, injected subcutaneously in syngeneic C57/BL6 mice, is able to proliferate and generate tumor masses.
Figure 9 Inhibition of mouse allograft growth in vivo by compound 4o. Male C57BL/6 mice were injected subcutaneously at their dorsal region with […] BL6-B16 murine melanoma cells. […] Injections were given intraperitoneally at the days indicated by the arrows. Data are presented as mean ± SEM of tumor volume at each time point for 5 animals per group. *p < 0.05, **p < 0.01 ***p < 0.001 vs. control.
Six week old C57BL/6 mice (Charles River, Calco) were injected subcutaneously into the dorsolateral flank with 2.5 × 10^5 BL6-B16 murine melanoma cells in 200 μL-total volume of PBS. When tumors were palpable, animals were treated intraperitoneally every other day with different doses of test compounds dissolved in 50 μL of DMSO. Tumors were measured in two dimensions, and tumor volume was calculated according to the formula V = (D × d^2)/2, where D and d are the major and minor perpendicular tumor diameters, respectively.

Jurkat [3] = assay: Annexin-V/PI apoptosis assay, Jurkat; assay type: cell-based, human; settings: 24 h, lowest concentration used (50 nM)
Procedure: To evaluate the induction of apoptosis by compound 4o in two cell lines (HeLa and Jurkat), we used an annexin-V/PI assay. Dual staining for annexin-V and with PI permits discrimination between live cells (annexin-V^−/PI^−), early apoptotic cells (annexin-V^+/PI^−), late apoptotic cells (annexin-V^+/PI^+) and necrotic cells (annexin-V^−/PI^+).
Cell death was determined by flow cytometry of cells double stained with annexin V/FITC and PI. The Coulter Cytomics FC500 (Beckman Coulter) was used to measure the surface exposure of phosphatidyl serine on apoptotic cells according to the manufacturer’s instructions (Annexin-V Fluos, Roche Diagnostics).

Jurkat [4] = assay: Mitochondrial membrane potential (JC-1), Jurkat; assay type: cell-based, human; settings: Jurkat, 50, 100 and 250 nM; time- and concentration-dependent
Procedure: Mitochondria play an essential role in the propagation of apoptosis. It is well established that, at an early stage, apoptotic stimuli alter the mitochondrial transmembrane potential (Δψmt). Δψmt was monitored by the fluorescence of the dye JC-1. […] This occurred in a time- and concentration-dependent fashion, and, in both cell lines, a significant increase was observed after a 6 h treatment. The disruption of Δψmt is associated with the appearance of annexin-V positivity in the treated cells when they are in an early apoptotic stage. […] Cells were treated with the indicated concentration of compound for 24 or 48 h and then stained with the fluorescent probe JC-1 for analysis of mitochondrial potential or H2-DCFDA for the evaluation of ROS levels. Cells were then analyzed by flow cytometry as described in the experimental section.

HeLa cells = assay: Western blot analysis of cell cycle, spindle checkpoint and apoptosis proteins; assay type: cell-based, human
Procedure: HeLa cells were incubated in the presence of 4o and, after different times, were collected, centrifuged, and washed two times with ice cold phosphate buffered saline (PBS). The pellet was then resuspended in lysis buffer. After the cells were lysed on ice for 30 min, lysates were centrifuged at 15000 × g at 4 °C for 10 min. The protein concentration in the supernatant was determined using the BCA protein assay reagents (Pierce, Italy). Equal amounts of protein (10 μg) were resolved using sodium dodecyl sulfate-polyacrylamide gel electrophoresis (SDS-PAGE) (Criterion Precast, BioRad, Italy) and transferred to a PVDF Hybond-P membrane (GE Healthcare). Membranes were blocked with a bovine serum albumin solution (5% in Tween PBS 1X), the membranes being gently rotated overnight at 4 °C. Membranes were then incubated with primary antibodies against Bcl-2, PARP, cdc25c, CDC20, ROCK1, MAD2, p-H2AX^Ser139, cyclin B, p-cdc2^Tyr15, […] (all from Cell Signaling), caspase-3 (Alexis), or β-actin (Sigma-Aldrich) for 2 h at room temperature. Membranes were next incubated with peroxidase labeled secondary antibodies for 60 min. All membranes were visualized using ECL Select (GE Healthcare), and images were acquired using an Uvitec-Alliance imaging system (Uvitec, Cambridge, UK). To ensure equal protein loading, each membrane was stripped and reprobed with anti-β-actin antibody.

[5] = highest dose (7.5 mg/kg i.p.), mice, data not shown
[6] = HeLa, 24 h, all concentrations examined

With `CCOc1ccc(-c2nccn2-c2cc(OC)c(OC)c(OC)c2)cc1Cl` [Compound 4o, 2-(3′-Chloro-4′-ethoxyphenyl)-1-(3′,4′,5′-trimethoxyphenyl)-1H-imidazole] the IC50 (HT-29) was 0.4 ± 0.06 nM, the IC50 (Jurkat [1]) was 0.9 ± 0.2 nM and the IC50 (RS4;11) was 1.2 ± 0.7 nM. For the same molecule, the “reduction of tumor mass” value ([2]; 1 mg/kg i.p.) was 26.0%, the “reduction of tumor mass” value ([2]; 3.5 mg/kg i.p.) was 32.2% and the “reduction of tumor mass” value ([2]; 7.5 mg/kg i.p.) was 45.8%. For the same molecule, the animal body weight [2, 5] was “did not cause a decrease in animal body weight”, the signs of toxicity [2, 5] was “did not present any sign of toxicity” and the annexin-V positive cells (Jurkat [3]) was “significant accumulation of annexin-V positive cells”. The “percentage of cells with low Δψmt (JC-1)” value (Jurkat [4]) was “remarkable increase”, the “phosphorylation of γH2A.X (Ser139)” value (HeLa cells; HeLa) was “remarkable increase” and the “cyclin B1 expression” value (HeLa cells; HeLa, 50 nM, 24 h) was “marked increase”. For the same molecule, the MAD2 expression (HeLa cells; HeLa, 24 and 48 h) was “substantially decreased”, the “expression of phosphorylated cdc2” value (HeLa cells; HeLa, 24 and 48 h) was “strongly decreased” and the PARP (HeLa cells; HeLa, 50, 100 and 250 nM, 24 and 48 h) was “cleavage of PARP”. For the same molecule, the caspase-3 (HeLa cells; HeLa, 50, 100 and 250 nM, in particular after 48 h) was “activation of the effector caspase-3”, the “level of cdc20” value (HeLa cells; HeLa, 24 h) was “remained unaffected” and the “total cdc25c expression” value (HeLa cells; HeLa, 24 h) was “strongly reduced”. For the same molecule, the Bcl-2 expression (HeLa cells; [6]) was “dramatic decrease”, the Mcl-1 expression (HeLa cells; [6]) was “dramatic decrease” and the “phosphorylation of PLK1” value (HeLa cells; HeLa, 24 h, effect disappeared at 48 h) was “marked increase”. For the same molecule, the ROCK1 cleavage (HeLa cells; HeLa, 48 h) was “cleaved bands of ROCK1 appeared”.

Source: article PMC4877593, “Design and Synthesis of Potent in Vitro and in Vivo Anticancer Agents Based on 1-(3′,4′,5′-Trimethoxyphenyl)-2-Aryl-1H-Imidazole” (Scientific Reports, 2016)
